# Test results published in patent publication US20110245095A1, “FAST ASSIGNMENT OF ADEQUATE CHEMOTHERAPY WITH LATINUM BASED DRUGS FOR CANCER PATIENTS BASED ON THE IDENTIFICATION OF CONSTITUTIONAL BRCAL MUTATIONS” (priority 2008, published 2011).
# Legend:
# Format in all cases: in vivo, human
# [1] = system: cancer of the gallbladder, BRCA1 mutation carriers; assay: Cisplatin chemotherapy of BRCA1 mutation carriers with gallbladder cancer (Example 3, retrospective); conditions: 1 patient
# Description: (§1) The database of the oncology department at the Pomeranian Academy of Medicine, Szczecin (Poland), was retrospectively screened for patients affected by cancer types different than the breast or ovary (histologically or cytologically proven) since those cancer types had already been analyzed in Examples 1 and 2. Those patients had to be carriers of at least one constitutional mutation of the gene BRCA1, among the dominating founder mutations in Poland (CMG, 4153delA and 5382insC). The presence of a mutation was determined by the same techniques described in Example 1.
# (§2) The group that qualified matching all criteria consisted of five patients affected by cancer of the colon (1 subject), the pancreas (1 subject), the gallbladder (1 subject) and the lung (2 subjects). In 60% of the cases (both lung cancer patients and the colon cancer patient) a complete remission was reported after the application of the chemotherapy. […] In none of the cases, there was a lack of response towards cisplatin.
# [2] = system: cancer of the lung, BRCA1 mutation carriers; assay: Cisplatin chemotherapy of BRCA1 mutation carriers with lung cancer (Example 3, retrospective); conditions: 2 patients
# Description: as §1, §2
# [3] = system: cancer of colon, lung, pancreas, gallbladder, BRCA1 mutation carriers; assay: Cisplatin chemotherapy of BRCA1 mutation carriers with cancer at sites other than breast and ovaries, total (Example 3); conditions: 5 patients
# Description: as §1, §2
# [4] = system: disseminated breast and ovarian cancer, BRCA1 mutation carriers; assay: Cisplatin chemotherapy, disseminated breast and ovarian cancer analysed together (Example 2)
# Description: The patients selected for this study were retrospectively screened from the database of the oncology department at the Pomeranian Academy of Medicine, Szczecin (Poland). […] All cases were documented for the presence of a BRCA1 constitutional mutation among the dominating founder mutations in Poland (C610, 4153delA and 5382insC) determined by the same techniques described in Example 1. The tumor size had to be measurable per RECIST: X-Ray or physical examination ≧20 mm, and/or spiral CT scan≧10 mm, and/or conventional CT scan≧20 mm. Only individuals were chosen with a life expectancy a priori of at least 3 months, to exclude a technical blur due to extreme disease progression in terminal cancer cases. The maximal ECOG performance status admitted was less than or equal to 2. The definition of minimum adequacy of organ function required prior to study entry were as follows: Absolute neutrophil count (ANC)>1,500/mcl, Platelets>100,000/mcl, Haemoglobin >8 g/dl, Total Bilirubin <1.5×ULN, AST (SGOT)/ALT (SGPT)<2.5×ULN and Creatinine within the normal institutional limits. All patients signed their willingness and ability to comply with scheduled visits, treatment plans, laboratory tests, and other study procedures. A total of 15 patients matched the selection criteria with ages at diagnosis ranging from 32 to 70 years and mean age at diagnosis of 48 years.
# Ovarian cancer patients were selected following the same selection criteria. Four individuals matched the criteria with ages at diagnosis ranging from 42 to 45 years and mean age at diagnosis of 43.5 years.
# The response assessment was based on a complete tumor measurement form (the form is carried forward continuously from cycle to cycle). Possible responses were complete response, partial response, stable disease and progressive disease, according to international oncology standards.
# [5] = system: cancer of the pancreas, BRCA1 mutation carriers; assay: Cisplatin chemotherapy of BRCA1 mutation carriers with pancreatic cancer (Example 3, retrospective); conditions: 1 patient
# Description: as §1, §2
# [6] = system: cancer of the colon, BRCA1 mutation carriers; assay: Cisplatin chemotherapy of BRCA1 mutation carriers with colon cancer (Example 3, retrospective); conditions: 1 patient
# Description: as §1, §2
# [7] = system: invasive breast cancer, pathogenic BRCA1 mutation carriers; assay: Neoadjuvant cisplatin therapy in breast cancer patients carrying a constitutional BRCA1 mutation (Example 1)
# Description: Eight patients were treated in Szczecin (Poland) and two were treated in Bielsko-Biala (Poland). In these centers, genetic testing is offered to all women with incident breast cancer.
# For the purpose of this study, genetic testing was expedited; in most cases the test result was available within five days of diagnosis. Written informed consent was obtained from each patient. The protocol was approved by the Research Ethics Review Board of the Pomeranian Medical Academy.
# Patients with a previous diagnosis of breast cancer, or other cancer, were excluded (three patients). Patients who received prior chemotherapy were excluded (three patients). Patients with metastatic disease (stage 1V) at presentation were excluded (one patient). One patient presented with primary breast cancer after a previous prophylactic bilateral mastectomy and was excluded.
# Patients were evaluated for renal function, liver function, and hematology prior to therapy.
# Prior to platinum chemotherapy, the clinical and histological features of the breast cancers were assessed. Tumor size was evaluated by clinical examination and by ultrasound, in some cases supplemented by mammogram. Histology was evaluated in nine cases by core biopsy and in one case by fine needle aspiration. For the nine cases who underwent core biopsy, grade, ER, PR, and ERBB2 status were evaluated by immuno-histochemistry. […] Grade was evaluated in the core biopsy specimen using the Bloom-Richardson classification system,
# Each cycle was 21 days. Granulocyte colony-stimulating factor (G-CSF) was not given to any patient. Dexamethasone (8 mg) was administered once daily for three days after chemotherapy, Ondansetron (Zophran™; GlaxoWellcome) was used for anti-nausea prophylaxis. Toxicity (nausea, vomiting, neutropenia) was assessed using the National Cancer Institute Common Toxicity Criteria after each cycle.
# Surgery was followed by post-operative chemotherapy (four cycles of Adriamycin and Cyclophosphamide). Two patients received radiotherapy.
# Clinical response was considered complete if there was no evidence of the primary breast tumor according to the World Health Organization (WHO) criteria (total disappearance of the tumor in breast and lymph nodes). Clinical response was considered ‘partial’ if there was a reduction of ≧50% in the product of the two largest perpendicular diameters of the tumor. […] The primary endpoint of this study was pathologic complete response. Pathologic response was considered complete if there was no evidence of invasive breast tumor and the lymph nodes were negative. Pathology specimens were reviewed by two pathologists. If there was evidence of breast carcinoma in situ, but no evidence of invasive disease, this was still considered to be a pathologic complete response.
# [8] = system: disseminated ovarian cancer, BRCA1 mutation carriers; assay: Cisplatin chemotherapy of BRCA1 mutation carriers with disseminated ovarian cancer (Example 2, retrospective); conditions: 4 patients
# Description: The patients selected for this study were retrospectively screened from the database of the oncology department at the Pomeranian Academy of Medicine, Szczecin (Poland). […] All cases were documented for the presence of a BRCA1 constitutional mutation among the dominating founder mutations in Poland (C610, 4153delA and 5382insC) determined by the same techniques described in Example 1. The tumor size had to be measurable per RECIST: X-Ray or physical examination ≧20 mm, and/or spiral CT scan≧10 mm, and/or conventional CT scan≧20 mm. Only individuals were chosen with a life expectancy a priori of at least 3 months, to exclude a technical blur due to extreme disease progression in terminal cancer cases. The maximal ECOG performance status admitted was less than or equal to 2. […]
# [9] = N = 10, after mastectomy and lymph node dissection
# [10] = neoadjuvant cisplatin 75 mg/m^2 every three weeks, N = 10
smiles,measurement,setting,value
"N.N.[Cl][Pt][Cl] [cisplatin, cis-diamminedichloridoplatinum(II)]","No response, number of patients",[1],0
same,"Response: PR, number of patients",[1],1
same,"No response, number of patients",[2],0
same,"Response: CR, number of patients",[2],2
same,"Response: CR, % of patients",[3],60%
same,"Response: CR, number of patients",[3],3
same,"Response: PR, % of patients",[3],20%
same,"Response: PR, number of patients",[3],1
same,"Response: SD, % of patients",[3],20%
same,"Response: SD, number of patients",[3],1
same,patients with at least a partial remission,[3],80%
same,"No response, % of patients",[4]; 19 patients,21%
same,"No response, number of patients",[4]; 19 patients,4
same,"Response: CR, % of patients",[4]; 19 patients,53%
same,"Response: CR, number of patients",[4]; 19 patients,10
same,"Response: PR, % of patients",[4]; 19 patients,16%
same,"Response: PR, number of patients",[4]; 19 patients,3
same,"Response: SD, % of patients",[4]; 19 patients,10%
same,"Response: SD, number of patients",[4]; 19 patients,2
same,patients responsive to the therapy,"[4]; 19 patients, CR + PR + SD",79%
same,"adverse effects: anemia, cases",[4]; Example 2 patients,1 case
same,"adverse effects: nausea, cases",[4]; Example 2 patients,2 cases
same,"adverse effects: neutropenia, cases",[4]; Example 2 patients,6 cases
same,"No response, number of patients",[5],0
same,"Response: SD, number of patients",[5],1
same,"No response, number of patients",[6],0
same,"Response: CR, number of patients",[6],1
same,"Clinical Response: No Change, %",[7]; N = 10,0%
same,"Clinical Response: No Change, No.",[7]; N = 10,0
same,"Clinical Response: Partial Response, %",[7]; N = 10,10%
same,"Clinical Response: Partial Response, No.",[7]; N = 10,1
same,"Clinical Response: Progressive Disease, %",[7]; N = 10,0%
same,"Clinical Response: Progressive Disease, No.",[7]; N = 10,0
same,"Number of Lymph Nodes Positive: 0, %",[7]; N = 10,90%
same,"Number of Lymph Nodes Positive: 0, No.",[7]; N = 10,9
same,"Number of Lymph Nodes Positive: 1-3, %",[7]; N = 10,10%
same,"Number of Lymph Nodes Positive: 1-3, No.",[7]; N = 10,1
same,"Number of Lymph Nodes Positive: 4-9, %",[7]; N = 10,0%
same,"Number of Lymph Nodes Positive: 4-9, No.",[7]; N = 10,0
same,"Number of Lymph Nodes Positive: >9, %",[7]; N = 10,0%
same,"Number of Lymph Nodes Positive: >9, No.",[7]; N = 10,0
same,"Pathologic Response: No Response, %",[7]; N = 10,0%
same,"Pathologic Response: No Response, No.",[7]; N = 10,0
same,"Pathologic Response: Partial Reseponse, %",[7]; N = 10,10%
same,"Pathologic Response: Partial Reseponse, No.",[7]; N = 10,1
same,"Residual Disease in Breast: 1-3 cm, %",[7]; N = 10,0%
same,"Residual Disease in Breast: 1-3 cm, No.",[7]; N = 10,0
same,"Residual Disease in Breast: 4-9 cm, %",[7]; N = 10,0%
same,"Residual Disease in Breast: 4-9 cm, No.",[7]; N = 10,0
same,"Residual Disease in Breast: <1 cm, %",[7]; N = 10,0%
same,"Residual Disease in Breast: <1 cm, No.",[7]; N = 10,0
same,"Residual Disease in Breast: >9 cm, %",[7]; N = 10,0%
same,"Residual Disease in Breast: >9 cm, No.",[7]; N = 10,0
same,"Residual Disease in Breast: none, %",[7]; N = 10,100%
same,"Residual Disease in Breast: none, No.",[7]; N = 10,10
same,grade 3 or 4 anemia,[7]; N = 10,No grade 3 or 4 anemia was observed
same,patients with febrile neutropenia,[7]; N = 10,No patient
same,"Pathologic Response: Complete Pathologic Response, %",[7]; [9],90%
same,"Pathologic Response: Complete Pathologic Response, No.",[7]; [9],9
same,patients who stopped due to side effects (nausea and vomiting),"[7]; N = 10, stopped after two cycles",One patient
same,"complete pathologic response, patients who completed treatment","[7]; four cycles of cisplatin, seven patients",all seven
same,"Clinical Response: Complete Response, %",[7]; [10],90%
same,"Clinical Response: Complete Response, No.",[7]; [10],9
same,"pathologic complete response, patients who received two cycles","[7]; two cycles, three patients",two
same,"No response, number of patients",[8],0
same,"Response: PR (partial response), number of patients",[8],0
